{
  "source": "patent US9951043B2",
  "about": "“Therapeutic compounds” (Gilead Sciences, Inc., priority 2013, dated 2018)",
  "key": {"HIV-IIIb": {"tested_on": "HIV-IIIb", "assay": "Test A: Antiviral Assay in MT4 Cells", "assay_type": "cell-based, HIV-1", "details": "MT-4 cells infected with HIV-IIIb, 5 days, calculated from the dose response curve, values above 100 normalized to 100%; for inhibition at 0.2 µM / inhibition at 2 µM: Human immunodeficiency virus 1, IIIB, MT4, 120 h; for inhibition at 0.2 µM: read-out: % inhibition at 0.2 μM (percent inhibition of virus-induced cell killing), 0.2 μM drug concentration; for inhibition at 2 µM: read-out: % inhibition at 2 μM (percent inhibition of virus-induced cell killing), 2 μM drug concentration; for % inhibition at 2 μM (percent inhibition of virus-induced cell killing): 2 μM drug concentration", "protocol": "Test A: Antiviral Assay in MT4 Cells\n(§1) MT-4 cells were next mixed with HIV-IIIb at an m.o.i of 0.003 for 1 hour, after which time 35 μL of virus/cell mixture (2000 cells) was immediately added to each well containing 40 μL of diluted compound. The plates were then incubated at 37° C. for 5 days. […] Cell lysis was carried out by incubating at room temperature for 10 min and then chemiluminescence was read.\nThe data above represent an average over time of each assay for each compound. […] Thus, the data reported in the tables include the data reported in the priority document, as well as data from assays run in the intervening period."}, "[1]": {"assay": "Test B: Cytotoxicity Assay", "assay_type": "cell-based", "details": "human; uninfected MT-4 cells, same protocol as Test A, 5 days", "protocol": "as §1\n(§2) Test B: Cytotoxicity Assay\n(§3) Compound cytotoxicity and the corresponding CC50 values was determined using the same protocol as described in the antiviral assay (Test A) except that uninfected cells were used."}, "uninfected MT-4 cells": {"tested_on": "uninfected MT-4 cells", "assay": "Test B: Cytotoxicity Assay", "assay_type": "cell-based", "protocol": "as §1, §2, §3"}},
  "data": [
    {"compound": "CC(C)(O)C#Cc1ccc(-c2cccc3c(N)n[nH]c23)c([C@H](Cc2cc(F)cc(F)c2)NC(=O)Cn2nc(C(F)(F)F)c3c2C(F)(F)[C@@H]2C[C@H]32)n1", "note": "[Compound 29B, N—((S)-1-(3-(3-amino-1H-indazol-7-yl)-6-(3-hydroxy-3-methylbut-1-yn-1-yl)pyridin-2-yl)-2-(3,5-difluorophenyl)ethyl)-2-((3bS,4aR)-5,5-difluoro-3-(trifluoromethyl)-3b,4,4a,5-tetrahydro-1H-cyclopropa[3,4]cyclopenta[1,2-c]pyrazol-1-yl)acetamide]", "values": [
      {"measurement": "inhibition at 0.2 µM", "setting": "HIV-IIIb", "result": 80, "unit": "%"},
      {"measurement": "inhibition at 2 µM", "setting": "HIV-IIIb", "result": 81, "unit": "%"},
      {"measurement": "CC50 at 5 days", "setting": "[1]", "result": 15.3, "unit": "µM"}
    ]},
    {"compound": "Cn1nc(NS(C)(=O)=O)c2cccc(-c3ccc(C#C[C@@H](N)CO)nc3[C@H](Cc3cc(F)cc(F)c3)NC(=O)Cn3nc(C(F)(F)F)c4c3C(F)(F)[C@@H]3C[C@H]43)c21", "note": "[Compound 59B, N—((S)-1-(6-((R)-3-amino-4-hydroxybut-1-yn-1-yl)-3-(1-methyl-3-(methylsulfonamido)-1H-indazol-7-yl)pyridin-2-yl)-2-(3,5-difluorophenyl)ethyl)-2-((3bS,4aR)-5,5-difluoro-3-(trifluoromethyl)-3b,4,4a,5-tetrahydro-1H-cyclopropa[3,4]cyclopenta[1,2-c]pyrazol-1-yl)acetamide]", "values": [
      {"measurement": "inhibition at 0.2 µM", "setting": "HIV-IIIb", "result": 94, "unit": "%"},
      {"measurement": "inhibition at 2 µM", "setting": "HIV-IIIb", "result": 94, "unit": "%"},
      {"measurement": "CC50 at 5 days", "setting": "[1]", "result": 22.4, "unit": "µM"}
    ]},
    {"compound": "Cc1ccc(-c2ccc(C#CC(C)(C)O)nc2[C@H](Cc2cc(F)cc(F)c2)NC(=O)Cn2nc(C(F)F)c3c2C(F)(F)[C@@H]2C[C@H]32)c2c1c(NS(N)(=O)=O)nn2C", "note": "[Compound 71, 2-((3bS,4aR)-3-(difluoromethyl)-5,5-difluoro-3b,4,4a,5-tetrahydro-1H-cyclopropa[3,4]cyclopenta[1,2-c]pyrazol-1-yl)-N—((S)-2-(3,5-difluorophenyl)-1-(3-(1,4-dimethyl-3-(sulfamoylamino)-1H-indazol-7-yl)-6-(3-hydroxy-3-methylbut-1-yn-1-yl)pyridin-2-yl)ethyl)acetamide]", "values": [
      {"measurement": "inhibition at 0.2 µM", "setting": "HIV-IIIb", "result": 87, "unit": "%"},
      {"measurement": "inhibition at 2 µM", "setting": "HIV-IIIb", "result": 87, "unit": "%"},
      {"measurement": "CC50 at 5 days", "setting": "[1]", "result": 9.51, "unit": "µM"}
    ]},
    {"compound": "CC(C)(C)C#Cc1ccc(-c2cccn3c(NS(C)(=O)=O)nnc23)c([C@H](Cc2cc(F)cc(F)c2)NC(=O)Cn2nc(C(F)F)c3c2C(F)(F)[C@@H]2C[C@H]32)n1", "note": "[Compound 134, 2-((3bS,4aR)-3-(difluoromethyl)-5,5-difluoro-3b,4,4a,5-tetrahydro-1H-cyclopropa[3,4]cyclopenta[1,2-c]pyrazol-1-yl)-N—((S)-2-(3,5-difluorophenyl)-1-(6-(3,3-dimethylbut-1-yn-1-yl)-3-(3-(methylsulfonamido)-[1,2,4]triazolo[4,3-a]pyridin-8-yl)pyridin-2-yl)ethyl)acetamide]", "values": [
      {"measurement": "inhibition at 0.2 µM", "setting": "HIV-IIIb", "result": 82, "unit": "%"},
      {"measurement": "inhibition at 2 µM", "setting": "HIV-IIIb", "result": 83, "unit": "%"},
      {"measurement": "CC50 at 5 days", "setting": "[1]", "result": 28, "unit": "µM"}
    ]},
    {"compound": "COc1cc(-c2ccc(Cl)c3c(NS(C)(=O)=O)nn(C)c23)c([C@H](Cc2cc(F)cc(F)c2)NC(=O)Cn2nc(C(F)(F)F)c3c2C(F)(F)[C@@H]2C[C@H]32)nc1C#CC(C)(C)O", "note": "[Compound 135B, N—((S)-1-(3-(4-chloro-1-methyl-3-(methylsulfonamido)-1H-indazol-7-yl)-6-(3-hydroxy-3-methylbut-1-yn-1-yl)-5-methoxypyridin-2-yl)-2-(3,5-difluorophenyl)ethyl)-2-((3bS,4aR)-5,5-difluoro-3-(trifluoromethyl)-3b,4,4a,5-tetrahydro-1H-cyclopropa[3,4]cyclopenta[1,2-c]pyrazol-1-yl)acetamide]", "values": [
      {"measurement": "inhibition at 0.2 µM", "setting": "HIV-IIIb", "result": 93, "unit": "%"},
      {"measurement": "inhibition at 2 µM", "setting": "HIV-IIIb", "result": 93, "unit": "%"},
      {"measurement": "CC50 at 5 days", "setting": "[1]", "result": 14.2, "unit": "µM"}
    ]},
    {"compound": "CCC(O)C#Cc1ccc(-c2ccc(Cl)c3c(NS(C)(=O)=O)nn(C)c23)c([C@H](Cc2cc(F)cc(F)c2)NC(=O)Cn2nc(C(F)(F)F)c3c2C(F)(F)[C@@H]2C[C@H]32)n1", "note": "(stereo partly drawn) [Compound 145, N-((1S)-1-(3-(4-chloro-1-methyl-3-(methylsulfonamido)-1H-indazol-7-yl)-6-(3-hydroxypent-1-yn-1-yl)pyridin-2-yl)-2-(3,5-difluorophenyl)ethyl)-2-((3bS,4aR)-5,5-difluoro-3-(trifluoromethyl)-3b,4,4a,5-tetrahydro-1H-cyclopropa[3,4]cyclopenta[1,2-c]pyrazol-1-yl)acetamide]", "values": [
      {"measurement": "inhibition at 0.2 µM", "setting": "HIV-IIIb", "result": 99, "unit": "%"},
      {"measurement": "inhibition at 2 µM", "setting": "HIV-IIIb", "result": 99, "unit": "%"},
      {"measurement": "CC50 at 5 days", "setting": "[1]", "result": 8.69, "unit": "µM"}
    ]},
    {"compound": "Cn1nc(NS(C)(=O)=O)c2c(Cl)ccc(-c3ccc(-c4ccccn4)nc3[C@H](Cc3cc(F)cc(F)c3)NC(=O)Cn3nc(C(F)(F)F)c4c3C(F)(F)[C@@H]3C[C@H]43)c21", "note": "[Compound 172, N—((S)-1-(5-(4-chloro-1-methyl-3-(methylsulfonamido)-1H-indazol-7-yl)-[2,2′-bipyridin]-6-yl)-2-(3,5-difluorophenyl)ethyl)-2-((3bS,4aR)-5,5-difluoro-3-(trifluoromethyl)-3b,4,4a,5-tetrahydro-1H-cyclopropa[3,4]cyclopenta[1,2-c]pyrazol-1-yl)acetamide]", "values": [
      {"measurement": "CC50 at 5 days", "setting": "[1]", "result": 0.061, "unit": "µM"}
    ]},
    {"compound": "Cn1cc(-c2ccc(-c3ccc(Cl)c4c(NS(C)(=O)=O)nn(C)c34)c([C@H](Cc3cc(F)cc(F)c3)NC(=O)Cn3nc(C(F)(F)F)c4c3C(F)(F)[C@@H]3C[C@H]43)n2)cn1", "note": "[Compound 173, N—((S)-1-(3-(4-chloro-1-methyl-3-(methylsulfonamido)-1H-indazol-7-yl)-6-(1-methyl-1H-pyrazol-4-yl)pyridin-2-yl)-2-(3,5-difluorophenyl)ethyl)-2-((3bS,4aR)-5,5-difluoro-3-(trifluoromethyl)-3b,4,4a,5-tetrahydro-1H-cyclopropa[3,4]cyclopenta[1,2-c]pyrazol-1-yl)acetamide]", "values": [
      {"measurement": "inhibition at 0.2 µM", "setting": "HIV-IIIb", "result": 92, "unit": "%"},
      {"measurement": "inhibition at 2 µM", "setting": "HIV-IIIb", "result": 92, "unit": "%"},
      {"measurement": "CC50 at 5 days", "setting": "[1]", "result": "> 43.7", "unit": "µM"}
    ]},
    {"compound": "Cn1nc(NS(C)(=O)=O)c2c(Cl)ccc(-c3ccc(C#CC(C)(C)O)nc3[C@H](Cc3cccc(F)c3)NC(=O)Cn3nc(C(F)(F)F)c4c3C(F)(F)[C@@H]3C[C@H]43)c21", "note": "[Compound 187G, N—((S)-1-(3-(4-chloro-1-methyl-3-(methylsulfonamido)-1H-indazol-7-yl)-6-(3-hydroxy-3-methylbut-1-yn-1-yl)pyridin-2-yl)-2-(3-fluorophenyl)ethyl)-2-((3b,4aR)-5,5-difluoro-3-(trifluoromethyl)-3b,4,4a,5-tetrahydro-1H-cyclopropa[3,4]cyclopenta[1,2-c]pyrazol-1-yl)acetamide]", "values": [
      {"measurement": "% inhibition at 0.2 μM (percent inhibition of virus-induced cell killing)", "setting": "HIV-IIIb; 0.2 μM drug concentration", "result": 84, "unit": "%"},
      {"measurement": "% inhibition at 2 μM (percent inhibition of virus-induced cell killing)", "setting": "HIV-IIIb", "result": 84, "unit": "%"},
      {"measurement": "CC50", "setting": "uninfected MT-4 cells", "result": 19.8, "unit": "µM"}
    ]},
    {"compound": "N—((S)-1-(3-(3-chloro-1H-benzofuro[3,2-c]pyrazol-5-yl)-6-(3-hydroxy-3-methylbut-1-yn-1-yl)pyridin-2-yl)-2-(3,5-difluorophenyl)-2-((3bS,4aR)-5,5-difluoro-3-(trifluoromethyl)-3b,4,4a,5-tetrahydro-1H-cyclopropa[3,4]cyclopenta[1,2-c]pyrazol-1-yl)acetamide [Compound 113D]", "values": [
      {"measurement": "% inhibition at 2 μM (percent inhibition of virus-induced cell killing)", "setting": "HIV-IIIb", "result": 97, "unit": "%"},
      {"measurement": "CC50", "setting": "uninfected MT-4 cells", "result": 1.09, "unit": "µM"}
    ]}
  ]
}
